Results reported in paper PMC8544188 (Molecular Diversity, 2021).
Entries after “also recorded” stand apart in the source; their conditions may differ. Values belong to the molecule of their own block, whether it stands above or below them.

Legend:
α-glucosidase [1] = target: T1, α-glucosidase (Saccharomyces cerevisiae, UniProt P53341); test: α-glucosidase inhibition assay; type: biochemical
α-glucosidase [2] = target: T1, α-glucosidase; test: Enzyme kinetic studies; type: biochemical; details: Lineweaver–Burk plot: Km increased, Vmax unchanged

T1 sequence (P53341 whole entry): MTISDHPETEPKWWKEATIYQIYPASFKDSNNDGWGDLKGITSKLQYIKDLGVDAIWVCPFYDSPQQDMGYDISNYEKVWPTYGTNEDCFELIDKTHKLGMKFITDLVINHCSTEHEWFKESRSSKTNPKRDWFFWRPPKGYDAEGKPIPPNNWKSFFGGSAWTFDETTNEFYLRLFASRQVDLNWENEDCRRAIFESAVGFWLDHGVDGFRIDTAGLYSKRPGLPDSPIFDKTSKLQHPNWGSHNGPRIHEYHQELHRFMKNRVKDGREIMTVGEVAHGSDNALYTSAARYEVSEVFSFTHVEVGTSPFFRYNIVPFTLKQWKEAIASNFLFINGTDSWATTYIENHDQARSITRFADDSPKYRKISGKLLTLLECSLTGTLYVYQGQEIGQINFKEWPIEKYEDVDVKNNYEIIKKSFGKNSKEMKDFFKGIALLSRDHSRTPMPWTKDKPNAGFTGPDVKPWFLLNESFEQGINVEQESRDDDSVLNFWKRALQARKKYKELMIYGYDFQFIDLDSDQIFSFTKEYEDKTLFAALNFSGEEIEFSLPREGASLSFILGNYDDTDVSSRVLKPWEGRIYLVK

- fold improvement in inhibitory potency compared to acarbose (positive control) (α-glucosidase [1]; ratio of IC50 values versus acarbose): around fivefold
SMILES: N#CC(C(N)=O)c1c(-c2ccccc2)[nH]c2c1c(=O)oc1ccccc12 (stereo not shown) [4a, 2-cyano-2-(4-oxo-2-phenyl-1,4-dihydrochromeno[4,3-b]pyrrol-3-yl)acetamide]

SMILES: N#CCc1c(-c2ccccc2)[nH]c2c1c(=O)oc1ccc(Cl)cc12 [5b, 2-(8-chloro-4-oxo-2-phenyl-1,4-dihydrochromeno[4,3-b]pyrrol-3-yl)acetonitrile]
- α-glucosidase inhibitory activity in words (α-glucosidase [1]): diminished the inhibitory activity completely

- fold increase in potency compared to 5a (α-glucosidase [1]; ratio of IC50 values versus 5a): around fivefold
SMILES: N#CCc1c(-c2ccc(Cl)cc2)[nH]c2c1c(=O)oc1ccccc12 [5d, 2-(2-(4-chlorophenyl)-4-oxo-1,4-dihydrochromeno[4,3-b]pyrrol-3-yl)acetonitrile]

SMILES: COc1ccc(-c2[nH]c3c(c2CC#N)c(=O)oc2ccccc23)cc1 [5e, 2-(2-(4-methoxyphenyl)-4-oxo-1,4-dihydrochromeno[4,3-b]pyrrol-3-yl)acetonitrile]
- mode of inhibition (α-glucosidase [2]): competitive inhibition; also recorded: competitive inhibitor
